# Results taken from patent US11198695B2, “Fused ring derivative having MGAT-2 inhibitory activity” (Shionogi & Co., Ltd., priority 2017, dated 2021).
# Target: recombinant human MGAT2 (Homo sapiens (Human), UniProt Q3SYC2)
# Experiment: Measurement of human MGAT2 inhibitory activity
# Assay type: biochemical
# Conditions: read-out: IC50 (concentration exhibiting 50% enzyme inhibition), Table 52
# Procedure: A full-length human MGAT2 gene to which a Flag-tag had been added at the N-terminal was inserted into pFastBac (from Invitrogen). A recombinant baculovirus was produced in accordance with the protocol for a Bac-to-Bac baculovirus expression system (produced by Invitrogen), and Sf-9 cells were infected therewith. The cells were collected and sonicated, and then the membrane fraction was collected through centrifugation. Western blotting analysis with an anti-Flag antibody was performed for the membrane fraction to confirm expression, and the membrane fraction was used as a recombinant human MGAT2 enzyme solution.
# Solutions of the compounds of the present invention in DMSO were each aliquoted into 0.2-μL portions in a 384-well polystyrene microplate produced by Corning Incorporated, and 5 μL of an enzyme solution prepared with an assay buffer (100 mmol/L phosphate buffer (pH 7.4) containing 2 mmol/L DTT) and 5 μL of a substrate solution (100 mmol/L phosphate buffer (pH 7.4), 30 μmol/L 2-Oleoylglycerol, 10 μmol/L Oleoyl-CoA) were added thereto, and the resultant was stirred and centrifuged, and incubated in a moist chamber at room temperature for 1 hour. After enzymatic reaction, 50 μL of a quenching solution (containing 0.2 μmol/L Diolein-d5, 0.4% formic acid, and 50% isopropanol) containing Internal Standard (IS) was added to terminate the reaction, and the resultant was sealed in a plate produced by Shimadzu GLC Ltd., and then stirred and centrifuged, and measurement was performed by using an electrospray ionization method with a RapidFire360 and Agilent 6550 Q-TOF mass spectrometer. Diolein as a reaction product (P) of 2-Oleoylglycerol as the substrate and an ammonium adduct ion of the IS were detected, and the peak intensity ratio, P/IS, was calculated from the peak heights to evaluate the inhibitory activity. Inhibitory activities with/without addition of enzyme were defined as Control (+)/Control (−), respectively, and the respective % inhibitions were defined as 0% inhibition and 100% inhibition. The inhibitory activity was calculated from formula below with TIBCO Spotfire (produced by TIBCO Software Inc.): Inhibitory activity (%)=[1−{Sample−Control(−)}/{Control(+)−Control(−)}]*100 where Sample indicates a peak intensity ratio: P/IS, when the compound of the present invention was added.
# recombinant human MGAT2, sequence (Q3SYC2 whole entry): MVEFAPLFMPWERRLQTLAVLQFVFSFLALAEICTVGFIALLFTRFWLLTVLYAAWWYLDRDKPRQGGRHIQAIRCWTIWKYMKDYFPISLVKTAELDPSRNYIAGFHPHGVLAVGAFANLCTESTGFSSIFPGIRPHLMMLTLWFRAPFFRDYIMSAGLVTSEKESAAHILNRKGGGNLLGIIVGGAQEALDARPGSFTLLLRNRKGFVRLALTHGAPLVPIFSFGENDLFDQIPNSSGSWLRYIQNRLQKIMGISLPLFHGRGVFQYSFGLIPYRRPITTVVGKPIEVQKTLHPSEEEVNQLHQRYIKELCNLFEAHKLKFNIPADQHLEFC
row,IC50 [nM],SMILES
1,330,CC(=O)Nc1c2c(nn1CCC1CC1)C[C@]1(CCc3cc(OCCCC(F)(F)F)ccc31)NC2=O [Compound I-4]
2,610,O=C1N[C@@]2(CCc3cc(OCC(F)(F)F)ccc32)Cc2nn(CCC3CC3)c(NC(=O)c3onc4ccccc34)c21 [Compound I-177]
3,930,CS(=O)(=O)CC(=O)Nc1c2c(nn1-c1cccc3ccccc13)C[C@]1(CCc3cc(OCCCC(F)(F)F)ccc31)NC2=O [Compound I-39]
4,2.4,CS(=O)(=O)CC(=O)Nc1c2c(nn1CCCC(F)(F)F)C[C@]1(CCc3cc(OCCCC(F)(F)F)ccc31)NC2=O [Compound I-206]
5,960,O=C1N[C@@]2(CCc3cc(OCC(F)(F)F)ccc32)Cc2nn(CCC3CC3)c(C(=O)NC3CCOC3)c21 (some centres unmarked) [Compound I-86]
6,88,O=C(Nc1c2c(nn1CCC1CC1)C[C@]1(CCc3cc(OCC(F)(F)F)ccc31)NC2=O)c1cscn1 [Compound I-222]
7,440,CN(C)CCn1nc2c(c1NC(=O)CS(C)(=O)=O)C(=O)N[C@@]1(CCc3cc(OCCCC(F)(F)F)ccc31)C2 [Compound I-46]
8,6.8,CS(=O)(=O)CC(=O)Nc1c2c(nn1-c1ccccn1)C[C@]1(CCOc3cc(OCC(F)(F)F)ccc31)NC2=O [Compound I-105]
9,59,CC1(C)CCC(Cn2nc3c(c2NC(=O)CS(C)(=O)=O)C(=O)N[C@@]2(CCc4cc(OCC(F)(F)F)ccc42)C3)O1 (some centres unmarked) [Compound I-259]
10,430,CC(C)S(=O)(=O)NCc1c2c(nn1CCC1CC1)C[C@]1(CCc3cc(OCC(F)(F)F)ccc31)NC2=O [Compound I-141]
11,40.5,CS(=O)(=O)CC(=O)Nc1c2c(nn1-c1cc(Cl)cc(Cl)c1)C[C@]1(CCc3cc(OCC(F)(F)F)ccc31)NC2=O [Compound I-128]
12,430,N#CCNC(=O)c1c2c(nn1CCC1CC1)C[C@]1(CCc3cc(OCC(F)(F)F)ccc31)NC2=O [Compound I-84]
13,490,CS(=O)(=O)CC(=O)Nc1c2c(nn1Cc1ccon1)C[C@]1(CCc3cc(OCC(F)(F)F)ccc31)NC2=O [Compound I-260]
14,1.9,CS(=O)(=O)CC(=O)Nc1c2c(nn1CCC1CC1)C[C@]1(CCOc3cc(OCC(F)(F)F)ccc31)NC2=O [Compound I-49]
15,2.5,Cc1ccc(-n2nc3c(c2NC(=O)CS(C)(=O)=O)C(=O)N[C@@]2(CCc4cc(OCCCC(F)(F)F)ccc42)C3)cc1 [Compound I-42]
16,25,CS(=O)(=O)CC(=O)Nc1c2c(nn1CCC1CC1)C[C@]1(CCc3cc(NCC(F)(F)F)ccc31)NC2=O [Compound I-102]
17,270,CS(=O)(=O)CC(=O)Nc1c2c(nn1CC1CCOCC1)C[C@]1(CCc3cc(OCCCC(F)(F)F)ccc31)NC2=O [Compound I-205]
18,64,CCOCCS(=O)(=O)NC(=O)c1c2c(nn1CCC1CC1)C[C@]1(CCc3cc(OCC(F)(F)F)ccc31)NC2=O [Compound I-115]
19,150,O=C1N[C@@]2(CCc3cc(OCC(F)(F)F)ccc32)Cc2nn(CCC3CC3)c(C(=O)NS(=O)(=O)Cc3ccccc3)c21 [Compound I-119]
20,48,O=C1N[C@@]2(CCc3cc(OCC(F)(F)F)ccc32)Cc2nn(CCC3CC3)c(-c3nn[nH]n3)c21 [Compound I-280]
21,3.6,CS(=O)(=O)CC(=O)Nc1c2c(nn1-c1ccc(C#N)cn1)C[C@]1(CCc3cc(N4CC(F)(F)C4)ccc31)NC2=O [Compound I-163]
22,550,CS(=O)(=O)NCc1c2c(nn1CCC1CC1)C[C@]1(CCc3cc(OCC(F)(F)F)ccc31)NC2=O [Compound I-138]
23,32,COc1ccc(-n2nc3c(c2NC(=O)CS(C)(=O)=O)C(=O)N[C@@]2(CCc4cc(OCC(F)(F)F)ccc42)C3)cc1 [Compound I-100]
24,6.3,CS(=O)(=O)CC(=O)Nc1c2c(nn1-c1ccccn1)C[C@]1(CCc3cc(OCC(F)(F)F)cc(F)c31)NC2=O [Compound I-185]
25,4.1,CCc1ccc(-n2nc3c(c2NC(=O)CS(C)(=O)=O)C(=O)N[C@@]2(CCc4cc(OCCCC(F)(F)F)ccc42)C3)cc1 [Compound I-139]
26,780,CS(=O)(=O)CC(=O)Nc1c2c(nn1-c1cnccn1)C[C@@]1(CCc3cc(OCC(F)(F)F)ccc31)NC2=O [Compound I-271]
27,310,Cc1oncc1C(=O)Nc1c2c(nn1CCC1CC1)C[C@]1(CCc3cc(OCC(F)(F)F)ccc31)NC2=O [Compound I-224]
28,150,Cc1ccccc1-n1nc2c(c1NC(=O)CS(C)(=O)=O)C(=O)N[C@@]1(CCc3cc(OCCCC(F)(F)F)ccc31)C2 [Compound I-180]

# Same assay, conditions: read-out: IC50 (concentration exhibiting 50% enzyme inhibition), Table 53
row,IC50 [nM],SMILES
1,19.6,N#Cc1ccc(-n2nc3c(c2C(=O)NCC(F)(F)F)C(=O)N[C@@]2(CCc4cc(OCC(F)(F)F)ccc42)C3)nc1 [II-124]
2,110,CS(=O)(=O)CC(=O)Nc1c2c(nn1-c1ccc(C#N)cn1)CC1(CN(c3nc(C(F)(F)F)co3)C1)NC2=O [II-79]
3,66,COC1CN(c2ccc3c(c2)CC[C@]32Cc3nn(-c4ccc(C#N)cn4)c(NC(=O)CS(C)(=O)=O)c3C(=O)N2)C1 [II-57]
4,3.06,N#Cc1ccc(-n2nc3c(c2C(=O)NC2CS(=O)(=O)C2)C(=O)N[C@@]2(CCc4cc(OCC(F)(F)F)ccc42)C3)nc1 [II-189]
5,1.8,Cc1ccc(-n2nc3c(c2NC(=O)CS(C)(=O)=O)C(=O)N[C@@]2(CCOc4cc(OCC(F)(F)F)ccc42)C3)cc1F [II-248]
6,2.9,CS(=O)(=O)CC(=O)Nc1c2c(nn1CCCOC(F)(F)F)C[C@]1(CCOc3cc(OCC(F)(F)F)ccc31)NC2=O [II-64]
7,35.5,N#CCCNC(=O)c1c2c(nn1-c1ccc(C#N)cn1)C[C@]1(CCc3cc(OCC(F)(F)F)ccc31)NC2=O [II-183]
8,45.7,Cc1ccc(-n2nc3c(c2NC(=O)CS(C)(=O)=O)C(=O)N[C@@]2(CCc4cc(OCC(F)(F)F)ccc42)C3)cn1 [II-138]
9,1,Cc1cc(-n2nc3c(c2NC(=O)CS(C)(=O)=O)C(=O)N[C@](C)(c2ccc(OCCCC(F)(F)F)cc2F)C3)no1 [II-305]
10,1.55,CS(=O)(=O)CC(=O)Nc1c2c(nn1CCCOC(F)F)C[C@@]1(CCc3cc(OCC(F)(F)F)ccc31)NC2=O [II-194]
11,48,CS(=O)(=O)CC(=O)Nc1c2c(nn1CCC1CC1)C[C@@]1(CCc3cc(N4CC(n5cccn5)C4)ccc31)NC2=O [II-35]
12,37,CS(=O)(=O)CC(=O)Nc1c2c(nn1-c1ccc(C#N)cn1)C[C@]1(CCc3ccccc31)NC2=O [II-52]
13,4.18,Cc1ccc(-n2nc3c(c2C(=O)NCC2(CO)CC2)C(=O)N[C@@]2(CCc4cc(OCC(F)(F)F)ccc42)C3)nc1 [II-198]
14,95.3,Cc1ccc(-n2nc3c(c2C(=O)NCCS(N)(=O)=O)C(=O)N[C@@]2(CCc4cc(OCC(F)(F)F)ccc42)C3)cc1F [II-209]
15,40,Cc1ccc(-n2nc3c(c2NC(=O)CC#N)C(=O)N[C@@]2(CCOc4cc(OCC(F)(F)F)ccc42)C3)nc1 [II-263]
16,9.1,CC(C)c1ccc(N2CC3(Cc4nn(-c5ccc(C#N)cn5)c(NC(=O)CS(C)(=O)=O)c4C(=O)N3)C2)cc1 [II-80]
17,11.3,Cc1cc(-n2nc3c(c2NC(=O)CS(C)(=O)=O)C(=O)N[C@@]2(CCc4cc(Cl)ccc42)C3)nn1C [II-306]
18,6.79,Cc1ccc(-n2nc3c(c2C(=O)NCC#N)C(=O)N[C@@]2(CCc4cc(OCC(F)(F)F)ccc42)C3)nc1 [II-197]
19,11.3,N#Cc1ccc(-n2nc3c(c2C(=O)NCC(N)=O)C(=O)N[C@]2(CCc4cc(OCC(F)(F)F)ccc42)C3)nc1 [II-245]
20,1.39,Cc1ccc(-n2nc3c(c2NC(=O)CS(C)(=O)=O)C(=O)N[C@@]2(CCc4cc(CCC(F)(F)F)ccc42)C3)nn1 [II-304]
21,14,CS(=O)(=O)CC(=O)Nc1c2c(nn1-c1ccc(C#N)cn1)CC1(CN(c3ccc(C(F)(F)F)cc3F)C1)NC2=O [II-53]
22,5.28,N#Cc1ccc(-n2nc3c(c2C(=O)NCC2(O)CC2)C(=O)N[C@@]2(CCc4cc(OCC(F)(F)F)ccc42)C3)nc1 [II-112]
23,2.49,CS(=O)(=O)CC(=O)Nc1c2c(nn1CCC1CC1)C[C@@]1(CCc3cc(OCC4CC(F)(F)C4)ccc31)NC2=O [II-82]
24,2.5,CS(=O)(=O)CC(=O)Nc1c2c(nn1CCC1CC1)C[C@@]1(CCc3cc(CCC(F)(F)F)ccc31)NC2=O [II-66]
25,19,COc1ccc(-n2nc3c(c2NC(=O)CS(C)(=O)=O)C(=O)N[C@@]2(CCOc4cc(OCC(F)(F)F)ccc42)C3)cc1 [II-6]
26,91.2,N#Cc1ccc(-n2nc3c(c2C(=O)NCC2(C(F)(F)F)CC2)C(=O)N[C@@]2(CCc4cc(OCC(F)(F)F)ccc42)C3)nc1 [II-191]
27,64.8,Cc1ccc(-n2nc3c(c2C(=O)NCC(N)=O)C(=O)N[C@@]2(CCOc4cc(OCC(F)(F)F)ccc42)C3)nc1 [II-229]
28,8.23,N#Cc1ccc(-n2nc3c(c2C(=O)NC2(C#N)CCCCC2)C(=O)N[C@@]2(CCc4cc(OCC(F)(F)F)ccc42)C3)nc1 [II-113]
